Results published in article PMC9908924, “Accelerating inhibitor discovery for deubiquitinating enzymes” (Nature Communications, 2023).

Tests used:
UCHL1 = target: T1, UCHL1 (Homo sapiens, UniProt P09936); experiment: active-site cysteine modification (in-house validation); type: binding; conditions: covalent
T1 construct: full length residues 1-223, N-terminal GST tag (pGEX6P1), 3C protease elution, E. coli BL21(DE3)
T1 sequence (P09936 1-223): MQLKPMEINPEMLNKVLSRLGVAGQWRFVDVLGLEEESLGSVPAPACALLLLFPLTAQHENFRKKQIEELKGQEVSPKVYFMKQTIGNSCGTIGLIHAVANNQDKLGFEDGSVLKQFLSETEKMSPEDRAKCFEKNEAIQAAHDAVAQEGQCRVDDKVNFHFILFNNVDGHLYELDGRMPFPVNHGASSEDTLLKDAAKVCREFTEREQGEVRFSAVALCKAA

USP40 = target: T2, USP40 (Homo sapiens, UniProt Q9NVE5); experiment: DUB-ABPP competition with biotin-Ub-PA / biotin-Ub-VME, TMT MS; type: biochemical; conditions: chloroacetamide; 10 µM
T2 construct: endogenous full-length protein in HEK293T lysate
T2 sequence (Q9NVE5 1-1235): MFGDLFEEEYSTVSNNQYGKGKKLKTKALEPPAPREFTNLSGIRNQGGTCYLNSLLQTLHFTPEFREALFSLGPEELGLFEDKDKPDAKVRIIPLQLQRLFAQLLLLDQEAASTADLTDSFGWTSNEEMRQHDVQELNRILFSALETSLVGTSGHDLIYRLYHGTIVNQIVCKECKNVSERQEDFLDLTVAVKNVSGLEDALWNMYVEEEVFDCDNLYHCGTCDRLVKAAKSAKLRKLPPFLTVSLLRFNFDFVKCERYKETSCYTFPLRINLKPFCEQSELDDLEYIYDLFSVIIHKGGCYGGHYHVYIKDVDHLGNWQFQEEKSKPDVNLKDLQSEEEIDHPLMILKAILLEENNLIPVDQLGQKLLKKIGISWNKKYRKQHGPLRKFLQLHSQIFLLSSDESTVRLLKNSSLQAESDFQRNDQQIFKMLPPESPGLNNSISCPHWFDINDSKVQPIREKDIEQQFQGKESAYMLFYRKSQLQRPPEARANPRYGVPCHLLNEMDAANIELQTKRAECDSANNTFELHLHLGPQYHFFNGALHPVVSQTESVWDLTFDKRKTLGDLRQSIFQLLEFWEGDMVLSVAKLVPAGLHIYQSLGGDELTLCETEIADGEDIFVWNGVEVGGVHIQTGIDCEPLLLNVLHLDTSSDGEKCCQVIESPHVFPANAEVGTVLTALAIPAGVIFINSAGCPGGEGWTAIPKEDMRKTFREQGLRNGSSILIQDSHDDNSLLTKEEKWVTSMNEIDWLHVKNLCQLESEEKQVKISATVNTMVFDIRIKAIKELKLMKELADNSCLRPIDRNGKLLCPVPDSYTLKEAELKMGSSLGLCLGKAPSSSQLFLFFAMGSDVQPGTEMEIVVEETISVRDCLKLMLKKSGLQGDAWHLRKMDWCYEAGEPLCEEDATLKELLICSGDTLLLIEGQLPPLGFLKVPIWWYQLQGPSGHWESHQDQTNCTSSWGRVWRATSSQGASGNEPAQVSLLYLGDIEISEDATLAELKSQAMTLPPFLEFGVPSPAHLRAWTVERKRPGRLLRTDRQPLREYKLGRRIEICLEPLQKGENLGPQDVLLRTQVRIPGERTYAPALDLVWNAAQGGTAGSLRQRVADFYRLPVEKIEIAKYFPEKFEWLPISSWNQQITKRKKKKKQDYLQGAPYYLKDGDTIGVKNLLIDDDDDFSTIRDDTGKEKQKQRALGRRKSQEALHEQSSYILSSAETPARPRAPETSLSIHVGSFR

VCPIP1 = target: T3, VCPIP1 (Homo sapiens, UniProt Q96JH7); experiment: targeted cysteine chemoproteomics (PRM-LIVE); type: biochemical; conditions: covalent (catalytic cysteine); 50 µM compound in cell extract
T3 construct: endogenous full-length protein in HEK293 / HEK293T cell extract
T3 sequence (Q96JH7 1-1222): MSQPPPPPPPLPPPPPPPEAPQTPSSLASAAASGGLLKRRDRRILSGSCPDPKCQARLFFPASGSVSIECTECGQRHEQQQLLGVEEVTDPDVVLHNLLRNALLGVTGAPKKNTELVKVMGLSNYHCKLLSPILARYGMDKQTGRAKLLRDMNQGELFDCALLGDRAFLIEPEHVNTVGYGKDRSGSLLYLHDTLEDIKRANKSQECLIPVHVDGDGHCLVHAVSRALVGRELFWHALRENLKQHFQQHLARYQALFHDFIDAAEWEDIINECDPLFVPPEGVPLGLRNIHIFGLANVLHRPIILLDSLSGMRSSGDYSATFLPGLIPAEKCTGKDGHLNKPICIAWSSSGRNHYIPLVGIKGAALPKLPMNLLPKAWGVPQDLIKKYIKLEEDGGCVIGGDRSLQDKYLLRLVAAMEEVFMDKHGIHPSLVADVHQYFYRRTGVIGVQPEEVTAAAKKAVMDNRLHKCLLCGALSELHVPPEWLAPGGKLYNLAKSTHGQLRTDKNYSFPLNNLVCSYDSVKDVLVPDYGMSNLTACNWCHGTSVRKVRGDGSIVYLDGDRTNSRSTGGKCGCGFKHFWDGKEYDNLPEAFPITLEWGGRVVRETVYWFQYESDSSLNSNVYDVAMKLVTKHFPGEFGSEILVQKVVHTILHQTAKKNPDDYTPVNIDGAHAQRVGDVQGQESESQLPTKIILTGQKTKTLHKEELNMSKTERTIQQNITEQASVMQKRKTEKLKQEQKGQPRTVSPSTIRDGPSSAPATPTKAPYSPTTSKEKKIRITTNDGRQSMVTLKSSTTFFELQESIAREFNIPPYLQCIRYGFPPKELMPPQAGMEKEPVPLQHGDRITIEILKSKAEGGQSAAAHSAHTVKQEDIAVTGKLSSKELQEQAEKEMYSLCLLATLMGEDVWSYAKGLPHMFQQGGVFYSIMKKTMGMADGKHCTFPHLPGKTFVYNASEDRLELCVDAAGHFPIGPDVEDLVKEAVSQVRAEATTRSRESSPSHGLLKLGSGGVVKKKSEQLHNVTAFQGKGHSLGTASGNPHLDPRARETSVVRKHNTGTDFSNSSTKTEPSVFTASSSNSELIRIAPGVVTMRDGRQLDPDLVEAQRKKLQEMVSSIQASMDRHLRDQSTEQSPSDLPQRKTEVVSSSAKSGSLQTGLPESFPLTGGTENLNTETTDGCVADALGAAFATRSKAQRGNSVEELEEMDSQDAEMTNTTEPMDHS

BAP1 = target: T4, BAP1 (Homo sapiens, UniProt Q92560); experiment: DUB-ABPP competition with biotin-Ub-PA / biotin-Ub-VME, TMT MS; type: biochemical; conditions: chloroacetamide; 50 µM
T4 construct: endogenous full-length protein in HEK293T lysate
T4 sequence (Q92560 1-729): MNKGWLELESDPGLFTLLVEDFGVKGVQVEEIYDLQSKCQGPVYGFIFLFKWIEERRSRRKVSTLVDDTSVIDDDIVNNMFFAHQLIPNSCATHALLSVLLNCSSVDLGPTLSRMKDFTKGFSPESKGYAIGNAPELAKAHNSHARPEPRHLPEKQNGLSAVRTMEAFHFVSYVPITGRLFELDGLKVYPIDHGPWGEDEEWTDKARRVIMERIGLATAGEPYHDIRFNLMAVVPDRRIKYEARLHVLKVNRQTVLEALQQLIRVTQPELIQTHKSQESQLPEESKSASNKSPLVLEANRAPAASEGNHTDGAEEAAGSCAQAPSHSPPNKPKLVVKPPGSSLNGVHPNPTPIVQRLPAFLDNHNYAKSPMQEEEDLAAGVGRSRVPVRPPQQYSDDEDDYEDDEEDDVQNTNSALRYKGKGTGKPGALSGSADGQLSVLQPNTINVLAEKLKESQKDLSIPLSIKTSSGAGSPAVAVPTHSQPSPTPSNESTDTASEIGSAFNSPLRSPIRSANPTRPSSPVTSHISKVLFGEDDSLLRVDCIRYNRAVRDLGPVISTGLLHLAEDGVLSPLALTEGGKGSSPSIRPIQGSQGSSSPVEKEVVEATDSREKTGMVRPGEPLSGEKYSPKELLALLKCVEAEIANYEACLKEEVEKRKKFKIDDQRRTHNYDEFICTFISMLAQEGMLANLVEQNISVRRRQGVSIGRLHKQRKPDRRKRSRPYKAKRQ

USP7 = target: T5, USP7 (Homo sapiens, UniProt Q93009); experiment: as above; type: biochemical; conditions: covalent inhibitor
T5 construct: endogenous full-length protein in HEK293T lysate

USP22 = target: T6, USP22 (Homo sapiens, UniProt Q9UPT9); parameters: ubiquitin-rhodamine cleavage by purified DUB, fluorescence initial rate, 6 h pre-incubation with inhibitor; conditions: n=1; inhibitor
T6 construct: purified enzyme
T6 sequence (Q9UPT9 1-525): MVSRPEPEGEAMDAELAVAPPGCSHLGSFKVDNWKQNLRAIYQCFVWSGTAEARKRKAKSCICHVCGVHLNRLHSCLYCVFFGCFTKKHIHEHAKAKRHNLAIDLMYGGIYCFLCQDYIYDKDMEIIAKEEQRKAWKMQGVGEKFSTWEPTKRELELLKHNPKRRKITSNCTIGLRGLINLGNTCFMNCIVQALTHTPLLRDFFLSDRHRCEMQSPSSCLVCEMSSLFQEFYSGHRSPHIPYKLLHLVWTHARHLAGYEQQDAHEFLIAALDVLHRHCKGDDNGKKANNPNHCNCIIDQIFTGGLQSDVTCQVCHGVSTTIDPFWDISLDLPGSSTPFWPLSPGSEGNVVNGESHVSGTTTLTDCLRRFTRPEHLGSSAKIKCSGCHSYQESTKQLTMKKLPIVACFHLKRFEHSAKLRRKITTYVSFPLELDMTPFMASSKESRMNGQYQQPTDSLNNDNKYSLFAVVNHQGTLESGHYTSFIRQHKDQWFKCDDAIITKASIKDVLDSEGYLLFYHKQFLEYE

T5 sequence (Q93009 whole entry): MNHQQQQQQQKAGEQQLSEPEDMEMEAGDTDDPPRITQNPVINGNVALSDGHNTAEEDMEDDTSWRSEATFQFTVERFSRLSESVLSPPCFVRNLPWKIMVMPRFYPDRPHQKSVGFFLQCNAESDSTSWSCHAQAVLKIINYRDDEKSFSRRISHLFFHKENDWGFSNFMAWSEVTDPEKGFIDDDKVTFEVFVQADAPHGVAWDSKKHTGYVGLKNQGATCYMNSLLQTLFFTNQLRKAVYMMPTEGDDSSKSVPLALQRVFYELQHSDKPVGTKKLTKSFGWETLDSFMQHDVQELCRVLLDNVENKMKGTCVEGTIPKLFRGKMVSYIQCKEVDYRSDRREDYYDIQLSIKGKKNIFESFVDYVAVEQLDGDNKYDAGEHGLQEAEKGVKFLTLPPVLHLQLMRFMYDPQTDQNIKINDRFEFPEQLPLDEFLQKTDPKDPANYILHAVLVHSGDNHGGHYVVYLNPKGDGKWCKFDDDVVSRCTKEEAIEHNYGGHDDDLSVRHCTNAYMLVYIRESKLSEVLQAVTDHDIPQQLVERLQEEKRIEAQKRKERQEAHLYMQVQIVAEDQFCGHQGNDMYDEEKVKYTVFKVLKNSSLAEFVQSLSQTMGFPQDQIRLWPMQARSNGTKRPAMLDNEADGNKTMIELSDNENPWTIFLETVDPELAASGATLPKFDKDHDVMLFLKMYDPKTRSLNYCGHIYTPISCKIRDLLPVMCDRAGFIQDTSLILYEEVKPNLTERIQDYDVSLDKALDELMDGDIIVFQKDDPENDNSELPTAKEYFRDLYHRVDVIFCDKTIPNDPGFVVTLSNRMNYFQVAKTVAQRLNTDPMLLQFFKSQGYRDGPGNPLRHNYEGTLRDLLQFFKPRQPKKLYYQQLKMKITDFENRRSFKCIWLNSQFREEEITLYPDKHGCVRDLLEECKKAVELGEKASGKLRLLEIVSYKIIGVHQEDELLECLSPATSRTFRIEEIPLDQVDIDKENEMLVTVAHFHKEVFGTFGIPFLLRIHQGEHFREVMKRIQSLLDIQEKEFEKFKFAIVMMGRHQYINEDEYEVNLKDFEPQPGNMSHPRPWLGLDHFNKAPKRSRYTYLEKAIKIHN

N#CN1CCC(C(=O)Nc2cn(Cc3ccccc3)cn2)C1 (stereo not drawn) [SB1-F-22]
active-site cysteine modification (in-house validation) (UCHL1): validated in-house to modify the active site cysteine of UCHL1

COc1ccc(C(=O)NCC2CN(C(=O)CCl)C2)cc1 [V08]
DUB-ABPP competition with biotin-Ub-PA / biotin-Ub-VME, TMT MS (USP40): USP16 (V03), and USP40 (V08, V09)

O=C(NCC1CN(C(=O)CCl)C1)c1ccccc1 [WH-9943-103C]
% target occupancy at 50 μM (VCPIP1): ~ 78%
DUB-ABPP competition with biotin-Ub-PA / biotin-Ub-VME, TMT MS (BAP1): hit several DUBs including VCPIP1 (WH-9943-103C), BAP1 (WH-9943-103C)

CN1CCN(CCC(=O)Nc2ccc3c(=O)n(CC4(O)CCN(C(=O)[C@@H](CCCNC(=O)c5ccc6c(Cl)c7c(nc6c5)CCCC7)Cc5ccccc5)CC4)cnc3c2)CC1 [XL177A]
DUB-ABPP competition with biotin-Ub-PA / biotin-Ub-VME, TMT MS (USP7): recapitulated the DUB binding profiles expected for our selective chemotypes

O=C(CCl)N1CCC(O)(CNc2ncc3ccccc3n2)CC1 [XL_10320_009A]
IC50 (USP22): 94.4 µM
